Reference: the NIST ThermoML archive (doi:10.1021/acs.jced.8b00438)

What was measured:
[1] = xn = mol fraction of the nth substance listed; conditions: 100 kPa, Liquid; for viscosity: Falling or rolling sphere viscometry; for mass density: Vibrating tube method
[2] = 100 kPa, Liquid; for viscosity: Falling or rolling sphere viscometry; for mass density: Vibrating tube method

CCCCO [butan-1-ol] + C1CCC(C2CCCCC2)CC1
[1], x2 = 0
Conditions | mass density [kg/m3] | viscosity [mPa·s]
293.15 K | 809.5 | 2.941
298.15 K | 805.7 | 2.58
303.15 K | 801.87 | 2.274
308.15 K | 798 | 2.012
313.15 K | 794.1 | 1.787
318.15 K | 790.15 | 1.593
323.15 K | 786.16 | 1.426
328.15 K | 782.12 | 1.28
333.15 K | 778.01 | 1.152

CCCCO [butan-1-ol] + CCCCCCCCCCCC
[1], x2 = 0
Conditions | mass density [kg/m3] | viscosity [mPa·s]
293.15 K | 809.5 | 2.941
298.15 K | 805.7 | 2.58
303.15 K | 801.87 | 2.274
308.15 K | 798 | 2.012
313.15 K | 794.1 | 1.787
318.15 K | 790.15 | 1.593
323.15 K | 786.16 | 1.426
328.15 K | 782.12 | 1.28
333.15 K | 778.01 | 1.152

CCCCCCCCCCCC [dodecane] + C1CCC(C2CCCCC2)CC1
[1], x1 = 1
Conditions | mass density [kg/m3] | viscosity [mPa·s]
293.15 K | 748.83 | 1.491
298.15 K | 745.22 | 1.366
303.15 K | 741.59 | 1.257
308.15 K | 737.95 | 1.154
313.15 K | 734.31 | 1.076
318.15 K | 730.66 | 1.003
323.15 K | 727 | 0.936
328.15 K | 723.33 | 0.877
333.15 K | 719.65 | 0.823

CCCCO [butan-1-ol]
[2]
Conditions | mass density [kg/m3] | viscosity [mPa·s]
293.15 K | 809.5 | 2.941
298.15 K | 805.7 | 2.58
303.15 K | 801.87 | 2.274
308.15 K | 798 | 2.012
313.15 K | 794.1 | 1.787
318.15 K | 790.15 | 1.593
323.15 K | 786.16 | 1.426
328.15 K | 782.12 | 1.28
333.15 K | 778.01 | 1.152

C1CCC(C2CCCCC2)CC1 [1,1'-bicyclohexyl]
[2]
Conditions | mass density [kg/m3] | viscosity [mPa·s]
293.15 K | 886.05 | 4.003
298.15 K | 882.44 | 3.53
303.15 K | 878.84 | 3.137
308.15 K | 875.25 | 2.81
313.15 K | 871.66 | 2.532
318.15 K | 868.08 | 2.296
323.15 K | 864.5 | 2.092
328.15 K | 860.93 | 1.915
333.15 K | 857.35 | 1.762

CCCCCCCCCCCC [dodecane]
[2]
Conditions | mass density [kg/m3] | viscosity [mPa·s]
293.15 K | 748.83 | 1.491
298.15 K | 745.22 | 1.366
303.15 K | 741.59 | 1.257
308.15 K | 737.95 | 1.154
313.15 K | 734.31 | 1.076
318.15 K | 730.66 | 1.003
323.15 K | 727 | 0.936
328.15 K | 723.33 | 0.877
333.15 K | 719.65 | 0.823
